Results from patent publication US8026207B2, “Peptides and compositions for inhibiting fungal growth” (Japan Science and Technology Agency, priority 2005, dated 2011).
Ends that are not written are not given here.

How the values were obtained:
[1] = system: C. albicans; assay: Antifungal Test 1: survival of Candida by colony count after incubation with peptide; format: cell-based; settings: for concentration showing a lethal ratio of 100%: Candida strain from oral cavity of a patient, 90 min at 37° C., colony count after 48 h
Protocol: The antifungal action against Candida was examined in order to confirm the antifungal effect of the present peptide. The peptide was synthesized by a conventional amino acid synthesis method using a peptide synthesizer manufactured by Shimazu Co. of Japan. The strain of Candida was isolated and provided from oral cavity of a patient in Glasgowden Hospital. The antifungal effect of the present peptide was evaluated using the above Candida strain according to the method of Edgerton et al (1998). Twenty μl of the suspension of C. albicans (1.8×10^5 cfu/mL) was mixed with the same amount of a peptide solution (0.325 μM-25 μM of the peptide concentration) and incubated for 90 min at 37° C. The reaction was stopped by adding Yeast Nitrogen Base medium. The resulting mixture was spread onto Sabouraud dextrose agar plate and incubated for 48 h at 37° C. The number of living strains was determined by colony count and survival percentage (%) was calculated in comparison with the number of colony (100%) obtained using 1 mM phosphate buffer as a control instead of the peptide solution.
The antifungal effect (∘) of the present peptide (JH8194Y) is compared with that of JH8194 (*) , His5:Histatin 5 ([…]:♦)(SEQ ID NO: 6), LFG: Bovine lactoferrin ([…]: ▪)fSEQ ID NO: 7), LFB frag (FKCRRWQWRMKKLG:▴)(SEQ ID NO: 8), and Dhvar 4: Histatin analog developed by Holland ACTA (KRLFKKLLFSLRKY: x)(SEQ ID NO: 9). The ordinate and abscissa axes of FIG. 1 indicate percentage survived of Candida, and the concentration of peptide, respectively.

[2] = system: human erythrocytes; assay: Toxicity Test 1: hemolytic test using erythrocytes; format: cell-based; settings: peptides 0.325-100 μM, FIG. 3
Protocol: A final concentration of the peptides was adjusted in a range of 0.325-100 μM, and the test was done using human erythrocytes in accordance with Nikawa H, Fukushima H, Makihira S, Hamada T, Samaranayake L P. Fungicidal effect of three new synthetic cationic peptides against Candida albicans. Oral Dis. 2004 July; 10(4): 221-8.

[3] = system: Candida; settings: cited from earlier work

Row | Compound | concentration showing a lethal ratio of 100% [1] [µM] | antifungal effect (comparison in words) ([1]; FIG. 1) | concentration eliciting hemolysis [2] [µM] | Minimal Fungicidal Concentration [3] [µM]
1 | DSHEKRHHGYKRKFHEKHHSHRGY (Synthetic peptide Histatin 5) [basic antifungal peptide of the Histatin family existing in saliva] | > 50 | – | – | –
2 | KRLFRRWQWRMKKY | 2.5 | much stronger antifungal effect than lactoferrin and lactoferrin B | – | –
3 | C[C@@H]1[C@H](O)[C@@H](C)/C=C/C=C/C=C/C=C/C=C/C=C/C=C/[C@H](O[C@@H]2O[C@H](C)[C@@H](O)[C@H](N)[C@@H]2O)C[C@@H]2O[C@](O)(C[C@@H](O)C[C@@H](O)[C@H](O)CC[C@@H](O)C[C@@H](O)CC(=O)O[C@H]1C)C[C@H](O)[C@H]2C(=O)O [amphotericin B] | – | – | ≥ 5 | 5
4 | KRLFRRWQWRY | 1.25 | – | – | –
